Consider seven molecules from ChEMBL document CHEMBL3272351, “[1-(L-2-hydroxy-3-mercaptopropanoic acid)] analogues of arginine-vasopressin, [8-D-arginine]vasopressin, and [4-valine,8-D-arginine]vasopressin” (J Med Chem, 1977).

Series [1] is described as follows: Oxytocic activity in rat uterus in absence of Mg2+. In kind it is functional.
Series [2] can be described thus: Oxytocic activity in rat uterus in presence of Mg2+. Type of series: functional.
A short description of series [3]: Retardation factor of the compound in ethyl acetate-pyridine-acetic acid-water (5:5:1:3 v/v) by TLC analysis. Type of series: physicochemical. As to conditions: buffer.
Series [4] is filed under the species Rattus norvegicus. In words: Ratio of antidiuretic activity in rat to vasopressor activity in rat. More on the design: species or system Urine.
Series [5] concerns Rattus norvegicus. In words: Antidiuretic activity in iv dosed rat. In kind it is functional, Urine.
The species entered for series [6] is Rattus norvegicus. In words: Vasopressor activity in rat. Conditions: in vivo. Type of series: organism-based.
Series [7] in a line: Retardation factor of the compound in butan-1-ol-acetic acid-water (4:1:5 v/v) by TLC analysis. Type of series: physicochemical. As to conditions: buffer.
Series [8] in a line: Retardation factor of the compound in butan-1-ol-water (1:1 v/v) by TLC analysis. Type of series: physicochemical. As to conditions: buffer.
The subject of series [9] is Rattus norvegicus. In words: Antidiuretic activity in sc dosed Brattleboro rat assessed as spontaneous urine output measured every 1 hr for 24 hrs. In kind it is functional.
Series [10] is filed under the species Rattus norvegicus. In words: Ratio of antidiuretic activity in Brattleboro rat to vasopressor activity in rat. More on the design: species or system Urine.

Positions of bridges follow the written chain, without caps; N, C: chain ends. Non-standard residues stand in square brackets, D forms with d. Residues, ends and D or L forms follow the SMILES beside them. Mpa = O=C(O)CCS A value given as a limit tells only on which side of the number the result lay.

On to `N=C(N)NCCC[C@H](NC(=O)[C@@H]1CCCN1C(=O)[C@@H]1CSSCCC(=O)N[C@@H](Cc2ccc(O)cc2)C(=O)N[C@@H](Cc2ccccc2)C(=O)N[C@@H](CCC(N)=O)C(=O)N[C@@H](CC(N)=O)C(=O)N1)C(=O)NCC(N)=O` [DESMOPRESSIN], for which the results for the Activity in [1] and in [2] were 54 U/mg and 167 U/mg, respectively.
`CC(C)[C@@H]1NC(=O)[C@H](Cc2ccccc2)NC(=O)[C@H](Cc2ccc(O)cc2)NC(=O)[C@@H](O)CSSC[C@@H](C(=O)N2CCC[C@H]2C(=O)N[C@H](CCCN=C(N)N)C(=O)NCC(N)=O)NC(=O)[C@H](CC(N)=O)NC1=O`: the Rf in series [3] is on record as 0.85; in series [7] it was 0.68; in series [8], 0.48. Besides, the Ratio in the series filed under Rattus norvegicus [4] is on record as greater than 45000. For the same molecule, the Activity in the series on Rattus norvegicus [5] is reported as 892 U/mg; in the series listed under Rattus norvegicus [6], less than 0.02 U/mg; in [1] it was 1.1 U/mg; in series [2], 2.8 U/mg.
On to `NC(=O)CC[C@@H]1NC(=O)[C@H](Cc2ccccc2)NC(=O)[C@H](Cc2ccc(O)cc2)NC(=O)[C@@H](O)CSSC[C@@H](C(=O)N2CCC[C@H]2C(=O)N[C@@H](CCCN=C(N)N)C(=O)NCC(N)=O)NC(=O)[C@H](CC(N)=O)NC1=O`, for which the Rf is on record as 0.68 in series [3], 0.45 in [7] and 0.22 in series [8]. The Ratio in the series filed under Rattus norvegicus [4] was found to be 0.9. Moreover, the Activity in the series on Rattus norvegicus [5] worked out at 467 U/mg; in the series filed under Rattus norvegicus [6] it was 549 U/mg; in series [1] it was 31 U/mg; in series [2] it was 96 U/mg.
On to `NC(=O)CC[C@@H]1NC(=O)[C@H](Cc2ccccc2)NC(=O)[C@H](Cc2ccc(O)cc2)NC(=O)[C@@H](N)CSSC[C@@H](C(=O)N2CCC[C@H]2C(=O)N[C@@H](CCCN=C(N)N)C(=O)NCC(N)=O)NC(=O)[C@H](CC(N)=O)NC1=O` [VASOPRESSIN], for which the Activity in the series on Rattus norvegicus [9] was found to be 330 U/mg; in the series filed under Rattus norvegicus [6], 382 U/mg; in series [1] it was 16 U/mg; in series [2] it was 57 U/mg. Further, the Ratio in the series listed under Rattus norvegicus [10] is 0.9.
In the case of `CC(C)[C@@H]1NC(=O)[C@H](Cc2ccccc2)NC(=O)[C@H](Cc2ccc(O)cc2)NC(=O)CCSSC[C@@H](C(=O)N2CCC[C@H]2C(=O)N[C@H](CCCNC(=N)N)C(=O)NCC(N)=O)NC(=O)[C@H](CC(N)=O)NC1=O` ([Mpa]YFVNCP[dR]G-NH2; disulfide 1-6), the Activity in the series with Rattus norvegicus [9] was 1230 U/mg; in the series filed under Rattus norvegicus [6], less than 0.01 U/mg; in series [1], 8 U/mg; in [2], 2 U/mg. Also, in the series listed under Rattus norvegicus [10], the Ratio is reported as greater than 123000.
For the molecule `NC(=O)CC[C@@H]1NC(=O)[C@H](Cc2ccccc2)NC(=O)[C@H](Cc2ccc(O)cc2)NC(=O)[C@@H](O)CSSC[C@@H](C(=O)N2CCC[C@H]2C(=O)N[C@H](CCCN=C(N)N)C(=O)NCC(N)=O)NC(=O)[C@H](CC(N)=O)NC1=O`, the Rf in series [3] came out at 0.68; in series [7], 0.45; in series [8] it was 0.22. Also, the Ratio in the series listed under Rattus norvegicus [4] stood at 1030. Moreover, the Activity in the series on Rattus norvegicus [5] was 886 U/mg; in the series listed under Rattus norvegicus [6], 0.86 U/mg; in [1] it was 4.3 U/mg; in series [2], 2.6 U/mg.
Consider `CC(C)[C@@H]1NC(=O)[C@H](Cc2ccccc2)NC(=O)[C@H](Cc2ccc(O)cc2)NC(=O)[C@@H](N)CSSC[C@@H](C(=O)N2CCC[C@H]2C(=O)N[C@H](CCCN=C(N)N)C(=O)NCC(N)=O)NC(=O)[C@H](CC(N)=O)NC1=O`, for which the Ratio in the series listed under Rattus norvegicus [4] came out at 17650. Besides, the Activity with Rattus norvegicus [5] worked out at 653 U/mg; in the series filed under Rattus norvegicus [6] it was 0.037 U/mg; in series [1], 0.6 U/mg; in [2] it was 0.9 U/mg.
